How the values were obtained:
NCI-H292 = experiment: Cytotoxic effects, MTT assay; format: cell-based; conditions: Homo sapiens, 72 h incubation
Protocol: The cells are cultivated by a standard method, as indicated in the […] (ATCC) for the respective cell lines.
At the end of the selected incubation time, the MTT reagent is incubated with the cells for 4 h, followed by lysis of the cells overnight by addition of the detergent. […] The proliferation of cells which were not treated with test substance but were otherwise identically treated was defined as the 100% figure.

[1] = target: T1, human kinesin spindle protein KSP/Eg5 (Homo sapiens, UniProt P52732); experiment: Inhibition of the kinesin spindle protein KSP/Eg5 (ATPase, malachite green); format: biochemical; conditions: 10 nM KSP motor domain, 500 μM ATP, 2 h RT
T1 construct: The motor domain of the human kinesin spindle protein KSP/Eg5; purchased tebu-bio/Cytoskeleton Inc 027EG01-XL
T1 sequence (P52732 18-359 limits assumed): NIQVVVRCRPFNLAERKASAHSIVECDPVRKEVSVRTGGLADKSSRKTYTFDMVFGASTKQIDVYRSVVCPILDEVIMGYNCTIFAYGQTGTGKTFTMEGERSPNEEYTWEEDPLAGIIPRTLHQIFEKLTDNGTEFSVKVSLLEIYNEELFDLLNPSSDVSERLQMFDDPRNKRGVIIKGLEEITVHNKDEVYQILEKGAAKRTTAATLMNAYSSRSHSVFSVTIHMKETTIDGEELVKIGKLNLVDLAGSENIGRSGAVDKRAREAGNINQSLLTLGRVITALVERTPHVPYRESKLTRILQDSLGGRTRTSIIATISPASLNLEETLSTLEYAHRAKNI
In short: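 KSP/Eg5 motor domain (10 nM) preincubated 5 min at RT with 50 μg/ml taxol-stabilized bovine or porcine microtubules in 15 mM PIPES pH 6.8, 5 mM MgCl2, 10 mM DTT. IC50 = mean of three experiments.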

[2] = Cell permeability, flux assay using Caco-2 cells; conditions: human, Caco-2

SMILES | IC50 (NCI-H292) | IC50 [1] | Papp B→A at 2 h [2] | efflux ratio at 2 h [2]
CC(C)(C)[C@H](c1nc(-c2cc(F)ccc2F)cn1Cc1ccccc1)N(CCCN)C(=O)CSCCC(NC(=O)CCOCCOCCOCCOCCNC(=O)CCN1C(=O)CC(SC[C@H](N)C(=O)O)C1=O)C(=O)O.O=C(O)C(F)(F)F.O=C(O)C(F)(F)F (mixture of isomers) [Example 140, N-[19-(3(R/S)-[{(2R)-2-Amino-2-carboxyethyl]sulphanyl}-2,5-dioxopyrrolidin-1-yl)-17-oxo-4,7,10,13-tetraoxa-16-azanonadecan-1-oyl]-R/S-{2-[(3-aminopropyl){(1R)-1-[1-benzyl-4-(2,5-difluorophenyl)-1H-imidazol-2-yl]-2,2-dimethylpropyl}amino]-2-oxoethyl}homocysteine/trifluoroacetic acid (1:2)] | ≥ 500 nM | 2.51 nM | 0.17 ×10⁻⁶ cm/s | 1
CC(C)(C)[C@H](c1nn(-c2cc(F)ccc2F)cc1Cc1ccccc1)N(CCCN)C(=O)CO [Example 96, N-(3-Aminopropyl)-N-{(1R)-1-[4-benzyl-1-(2,5-difluorophenyl)-1H-pyrazol-3-yl]-2,2-dimethylpropyl}-2-hydroxyacetamide] | 2.09 nM | 7.8 nM | 28.5 ×10⁻⁶ cm/s | 16
CC(C)(C)[C@H](c1nc(-c2cc(F)ccc2F)cn1Cc1ccccc1)N(CC[C@H](N)C(=O)NCCC(=O)NCCN1C(=O)CC(SC[C@H](N)C(=O)O)C1=O)C(=O)CO.O=C(O)C(F)(F)F (stereo partly drawn) [Example 130, S-(1-{2-[(N-{(2S)-2-Amino-4-[{(1R)-1-[1-benzyl-4-(2,5-difluorophenyl)-1H-imidazol-2-yl]-2,2-dimethylpropyl}(glycoloyl)amino]butanoyl}-beta-alanyl)amino]ethyl}-2,5-dioxopyrrolidin-3-yl)-L-cysteine/trifluoroacetic acid (1:1)] | 178 nM | 1.66 nM | 1 ×10⁻⁶ cm/s | 6.7
CC(C)(C)[C@H](c1nn(-c2cc(F)ccc2F)cc1Cc1ccccc1)N(CC[C@H](N)C(=O)NCCNC(=O)CN1C(=O)CC(SC[C@H](N)C(=O)O)C1=O)C(=O)CO.O=C(O)C(F)(F)F (stereo partly drawn) [Example 131, S-[1-(2-{[2-({(2S)-2-Amino-4-[{(1R)-1-[4-benzyl-1-(2,5-difluorophenyl)-1H-pyrazol-3-yl]-2,2-dimethylpropyl}(glycoloyl)amino]butanoyl}amino)ethyl]amino}-2-oxoethyl)-2,5-dioxopyrrolidin-3-yl]-L-cysteine/trifluoroacetic acid (1:1)] | ≥ 500 nM | 1.24 nM | 0.9 ×10⁻⁶ cm/s | 10
C[C@H](NC(=O)CCNC(=O)[C@@H](N)CCN(C(=O)CO)[C@@H](c1nn(-c2cc(F)ccc2F)cc1Cc1ccccc1)C(C)(C)C)C(=O)N[C@@H](CCCNC(N)=O)C(=O)Nc1ccc(N2C(=O)CC(SC[C@H](N)C(=O)O)C2=O)cc1.O=C(O)C(F)(F)F (stereo partly drawn) [Example 132, N-{(2S)-2-Amino-4-[{(1R)-1-[4-benzyl-1-(2,5-difluorophenyl)-1H-pyrazol-3-yl]-2,2-dimethylpropyl}(glycoloyl)amino]butanoyl}-beta-alanyl-L-alanyl-N-[4-(3-{[(2R)-2-amino-2-carboxyethyl]sulphanyl}-2,5-dioxopyrrolidin-1-yl)phenyl]-N^5-carbamoyl-L-ornithinamide/trifluoroacetic acid (1:1)] | ≥ 500 nM | 1.65 nM | 0.16 ×10⁻⁶ cm/s | 1
CC(C)(C)[C@H](c1cc(-c2cc(F)ccc2F)cn1Cc1ccccc1)N(CC[C@H](N)C(=O)NCCC(=O)NCCN1C(=O)CC(SC[C@H](N)C(=O)O)C1=O)C(=O)CO.O=C(O)C(F)(F)F (stereo partly drawn) [Example 133, S-(1-{2-[(N-{(2S)-2-Amino-4-[{(1R)-1-[1-benzyl-4-(2,5-difluorophenyl)-1H-pyrrol-2-yl]-2,2-dimethylpropyl}(glycoloyl)amino]butanoyl}-beta-alanyl)amino]ethyl}-2,5-dioxopyrrolidin-3-yl)-L-cysteine/trifluoroacetic acid (1:1)] | 155 nM | 4.13 nM | 0.43 ×10⁻⁶ cm/s | 6
CC(C)[C@H](NC(=O)CCCCCN1C(=O)CC(SC[C@H](N)C(=O)O)C1=O)C(=O)N[C@@H](CCCNC(N)=O)C(=O)N[C@@H](CCCCNC(=O)[C@@H](N)CCN(C(=O)CO)[C@@H](c1nn(-c2cc(F)ccc2F)cc1Cc1ccccc1)C(C)(C)C)C(=O)O (stereo partly drawn) [Example 134, N-[6-(3-{[(2R)-2-Amino-2-carboxyethyl]sulphanyl}-2,5-dioxopyrrolidin-1-yl)hexanoyl]-L-valyl-N^5-carbamoyl-L-ornithyl-N^6-{(2S)-2-amino-4-[{(1R)-1-[4-benzyl-1-(2,5-difluorophenyl)-1H-pyrazol-3-yl]-2,2-dimethylpropyl}(glycoloyl)amino]butanoyl}-L-lysine/trifluoroacetic acid (1:1)] | ≥ 500 nM | 4.35 nM | 0.29 ×10⁻⁶ cm/s | 0.5
CC(C)(C)[C@H](c1nn(-c2cc(F)ccc2F)cc1Cc1ccccc1)N(CC[C@H](N)C(=O)NCCNC(=O)CSC[C@H](N)C(=O)O)C(=O)CO.O=C(O)C(F)(F)F [Example 136, S-(2-{[2-({(2S)-2-Amino-4-[{(1R)-1-[4-benzyl-1-(2,5-difluorophenyl)-1H-pyrazol-3-yl]-2,2-dimethylpropyl}(glycoloyl)amino]butanoyl}amino)ethyl]amino}-2-oxoethyl)-L-cysteine/trifluoroacetic acid (1:1)] | ≥ 500 nM | 0.328 nM | 0.91 ×10⁻⁶ cm/s | 8.5
CC(C)(C)[C@H](c1nn(-c2cc(F)ccc2F)cc1Cc1ccccc1)N(CC[C@H](N)C(=O)NNC(=O)CCCCCN1C(=O)CC(SC[C@H](N)C(=O)O)C1=O)C(=O)CO.O=C(O)C(F)(F)F (stereo partly drawn) [Example 137, S-{1-[6-(2-{(2S)-2-Amino-4-[{(1R)-1-[4-benzyl-1-(2,5-difluorophenyl)-1H-pyrazol-3-yl]-2,2-dimethylpropyl}(glycoloyl)amino]butanoyl}hydrazino)-6-oxohexyl]-2,5-dioxopyrrolidin-3-yl}-L-cysteine/trifluoroacetic acid (1:1)] | ≥ 500 nM | 0.778 nM | 1.7 ×10⁻⁶ cm/s | 19
CC(C)(C)[C@H](c1cc(-c2cc(F)ccc2F)cn1Cc1ccccc1)N(CC[C@H](N)C(=O)NCCN1C(=O)CC(SC[C@H](N)C(=O)O)C1=O)C(=O)CO.O=C(O)C(F)(F)F.O=C(O)C(F)(F)F (stereo partly drawn) [Example 139, S-{(3R/S)-1-[2-({(2S)-2-amino-4-[{(1R)-1-[1-benzyl-4-(2,5-difluorophenyl)-1H-pyrrol-2-yl]-2,2-dimethylpropyl}(glycoloyl)amino]butanoyl}amino)ethyl]-2,5-dioxopyrrolidin-3-yl}-L-cysteine/trifluoroacetic acid (1:2)] | 134 nM | 1.82 nM | 2.1 ×10⁻⁶ cm/s | 7.7
CC(=O)N[C@@H](CSCC(=O)N(CCCNC(=O)[C@H](C)N)[C@@H](c1cc(-c2cc(F)ccc2F)cn1Cc1ccccc1)C(C)(C)C)C(=O)O [Example 229, N-acetyl-S-[2-([3-(L-alanylamino)propyl]{(1R)-1-[1-benzyl-4-(2,5-difluorophenyl)-1H-pyrrol-2-yl]-2,2-dimethylpropyl}amino)-2-oxoethyl]-L-cysteine/trifluoroacetic acid (1:1)] | ≥ 500 nM | 4.44 nM |  | 
CC(C)(C)[C@H](c1cc(-c2cc(F)ccc2F)cn1Cc1ccccc1)N(CCCN)C(=O)[C@@H]1CCCO1 [Example 230, Trifluoroacetic acid/(2S)—N-(3-aminopropyl)-N-{(1R)-1-[1-benzyl-4-(2,5-difluorophenyl)-1H-pyrrol-2-yl]-2,2-dimethylpropyl}tetrahydrofuran-2-carboxamide (1:1)] | 0.0121 nM | 3.41 nM |  | 
CC(C)(C)[C@H](c1cc(-c2cc(F)ccc2F)cn1Cc1ccccc1)N(CCCN)C(=O)CSCCC(=O)O [Example 231, 3-({2-[(3-Aminopropyl){(1R)-1-[1-benzyl-4-(2,5-difluorophenyl)-1H-pyrrol-2-yl]-2,2-dimethylpropyl}amino]-2-oxoethyl}sulphanyl)propanoic acid/trifluoroacetic acid (1:1)] | 0.918 nM | 1.67 nM |  | 
CC(C)(C)[C@H](c1cc(-c2cc(F)ccc2F)cn1Cc1ccccc1)N(CCCN)C(=O)c1ccc(N)cc1 [Example 233, Trifluoroactic acid/4-amino-N-(3-aminopropyl)-N-{(1R)-1-[1-benzyl-4-(2,5-difluorophenyl)-1H-pyrrol-2-yl]-2,2-dimethylpropyl}benzamide (2:1)] | 0.963 nM | 3.88 nM |  | 
CC(C)(C)[C@H](c1cc(-c2cc(F)ccc2F)cn1Cc1ccccc1)N(CC[C@H](N)C(=O)NCCCCCCN1C(=O)CC(SC[C@H](N)C(=O)O)C1=O)C(=O)CO (stereo partly drawn) [Example 249, S-{1-[6-({(2S)-2-Amino-4-[{(1R)-1-[1-benzyl-4-(2,5-difluorophenyl)-1H-pyrrol-2-yl]-2,2-dimethylpropyl}(glycoloyl)amino]butanoyl}amino)hexyl]-2,5-dioxopyrrolidin-3-yl}-L-cysteine/trifluoroacetic acid (1:1)] | 26.6 nM | 0.915 nM |  | 
